Where “and” joins values, the source holds several entries; their conditions need not be identical. Equal entries are not always repeated.
Columns and labels:
HDAC1,2,3,6,8 = assay: HDAC-Glo assay (panel); format: biochemical, human
Description: (§1) To validate the inhibition of HDACs by LA and LM and elaborate on the structure-activity relationship (SAR) of enantiomers as well as oxidized versus reduced forms of the molecules, we performed enzyme activity assays for recombinant HDAC1,2,3,6,8 as well as FRET-based binding assay for recombinant HDAC10.
(§2) The experiments were performed according to ref. [48]. […] Drug dosing was performed with a D300e Digital Dispenser (Tecan). HDACs (7 ng/mL for HDAC1, 25 ng/mL for HDAC2, 200 ng/mL for HDAC3/Ncor2 complex, 100 ng/mL for HDAC6, 200 ng/mL for HDAC8) and inhibitors were incubated together at room temperature (RT) for 30 min. After the addition of the HDAC-Glo™ I/II reagent, plates were shaken (800 rpm orbital shaker, 30 s), centrifuged (300 g, 1 min), and incubated at RT for 30 min. Luminescence was detected with a CLARIOstar (BMG Labtech) plate reader.

HDAC2 = HDAC2 (Homo sapiens, UniProt Q92769); assay: HDAC-Glo assay; format: biochemical; parameters: purchased BPS Bioscience 50002; conditions: for HDAC2 relative activity: sheet S2b
Chain of HDAC2 (Q92769 whole entry): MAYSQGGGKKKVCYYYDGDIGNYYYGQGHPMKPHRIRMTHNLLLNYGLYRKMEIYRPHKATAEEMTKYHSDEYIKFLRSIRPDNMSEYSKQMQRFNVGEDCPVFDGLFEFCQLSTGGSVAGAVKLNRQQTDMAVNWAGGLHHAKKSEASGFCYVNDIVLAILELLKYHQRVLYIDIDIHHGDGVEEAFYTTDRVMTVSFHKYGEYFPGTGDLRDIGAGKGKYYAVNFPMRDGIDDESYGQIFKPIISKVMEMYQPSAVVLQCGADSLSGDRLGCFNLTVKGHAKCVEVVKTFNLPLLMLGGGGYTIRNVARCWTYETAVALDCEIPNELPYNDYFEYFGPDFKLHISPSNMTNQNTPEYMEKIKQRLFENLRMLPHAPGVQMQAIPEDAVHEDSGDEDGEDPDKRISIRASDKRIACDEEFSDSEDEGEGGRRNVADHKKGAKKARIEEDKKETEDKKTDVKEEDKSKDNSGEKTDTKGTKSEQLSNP
Description: as §1, §2

HDAC8 = target: T1, HDAC8 (Homo sapiens, UniProt Q9BY41); assay: HDAC-Glo assay; format: biochemical; parameters: purchased BPS Bioscience 50008; conditions: read-out: log EC50 from dose-dependent HDAC inhibition curves (converted)
T1 sequence (Q9BY41 1-377): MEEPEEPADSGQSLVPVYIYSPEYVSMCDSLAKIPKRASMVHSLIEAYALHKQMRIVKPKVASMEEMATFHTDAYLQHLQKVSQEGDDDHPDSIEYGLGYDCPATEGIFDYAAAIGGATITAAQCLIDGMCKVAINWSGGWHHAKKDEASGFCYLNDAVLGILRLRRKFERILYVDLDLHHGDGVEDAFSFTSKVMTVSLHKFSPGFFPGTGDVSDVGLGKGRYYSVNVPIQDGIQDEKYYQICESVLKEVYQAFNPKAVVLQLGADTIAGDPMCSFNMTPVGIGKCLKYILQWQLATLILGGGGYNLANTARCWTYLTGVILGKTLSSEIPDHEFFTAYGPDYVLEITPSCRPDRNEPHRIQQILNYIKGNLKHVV
Description: as §1, §2

HDAC1 = HDAC1 (Homo sapiens, UniProt Q13547); assay: HDAC-Glo assay; format: biochemical; parameters: purchased BPS Bioscience 50051; conditions: for raw luminescence signal, HDAC1 inhibition: 0.5 M TCEP; for HDAC1 relative activity: sheet S2b
Chain of HDAC1 (Q13547 whole entry): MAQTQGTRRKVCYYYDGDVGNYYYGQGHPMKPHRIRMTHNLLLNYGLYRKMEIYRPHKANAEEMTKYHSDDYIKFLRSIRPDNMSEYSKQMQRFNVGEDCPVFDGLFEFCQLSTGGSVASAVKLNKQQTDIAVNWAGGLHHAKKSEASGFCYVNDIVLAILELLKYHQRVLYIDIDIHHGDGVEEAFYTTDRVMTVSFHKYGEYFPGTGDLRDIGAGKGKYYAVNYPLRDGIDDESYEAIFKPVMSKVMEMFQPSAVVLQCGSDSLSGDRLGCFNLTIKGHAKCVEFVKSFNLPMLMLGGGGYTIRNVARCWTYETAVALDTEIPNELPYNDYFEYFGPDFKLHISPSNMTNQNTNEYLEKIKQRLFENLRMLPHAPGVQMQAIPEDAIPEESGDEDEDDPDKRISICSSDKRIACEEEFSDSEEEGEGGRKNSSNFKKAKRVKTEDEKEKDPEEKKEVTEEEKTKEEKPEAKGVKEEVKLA
Description: as §1, §2

[1] = read-out: log EC50 from dose-dependent HDAC inhibition curves (converted)

EC50 (HDAC1,2,3,6,8; with TCEP, range over HDAC1,2,3,6,8, read-out: EC50 of HDAC inhibition, reduced form): 1 to 44 µM
EC50 (HDAC2; [1]): 6.64 µM
HDAC2 relative activity (HDAC2; log conc -3.30103): 71.964 and 72.3177 and 72.1483
HDAC2 relative activity (HDAC2; log conc -3.82945): 80.6393 and 80.2369 and 79.5941
HDAC2 relative activity (HDAC2; log conc -4.35788): 93.3465 and 95.4258 and 92.7624
HDAC2 relative activity (HDAC2; log conc -4.88629): 96.436 and 96.5227 and 94.9323
HDAC2 relative activity (HDAC2; log conc -5.41477): 101.607 and 103.068 and 101.387
HDAC2 relative activity (HDAC2; log conc -5.94309): 100.457 and 99.1256 and 100.639
HDAC2 relative activity (HDAC2; log conc -6.47756): 98.6184 and 99.6756 and 101.604
HDAC2 relative activity (HDAC2; log conc -6.87615): 101.142 and 100.648 and 102.314
EC50 (HDAC8): 7.73 µM
raw luminescence signal, HDAC1 inhibition (HDAC1; log10 M -3.30103, 3 technical replicates): 5424 and 5479 and 5403
raw luminescence signal, HDAC1 inhibition (HDAC1; log10 M -3.82945, 3 technical replicates): 13727 and 13267 and 13133
raw luminescence signal, HDAC1 inhibition (HDAC1; log10 M -4.35788, 3 technical replicates): 41841 and 41621 and 40313
raw luminescence signal, HDAC1 inhibition (HDAC1; log10 M -4.88629, 3 technical replicates): 92316 and 92590 and 94920
raw luminescence signal, HDAC1 inhibition (HDAC1; log10 M -5.41477, 3 technical replicates): 199427 and 199193 and 204666
raw luminescence signal, HDAC1 inhibition (HDAC1; log10 M -5.94309, 3 technical replicates): 291058 and 290664 and 291270
raw luminescence signal, HDAC1 inhibition (HDAC1; log10 M -6.47756, 3 technical replicates): 353511 and 347886 and 348635
raw luminescence signal, HDAC1 inhibition (HDAC1; log10 M -6.87615, 3 technical replicates): 348604 and 343316 and 346349
EC50 (HDAC1; [1]): 4.62 µM
HDAC1 relative activity (HDAC1; log conc -3.30103): 71.5662 and 71.4067 and 71.4672
HDAC1 relative activity (HDAC1; log conc -3.82945): 85.3568 and 84.4089 and 84.9362
HDAC1 relative activity (HDAC1; log conc -4.35788): 99.571 and 98.7787 and 97.4651
HDAC1 relative activity (HDAC1; log conc -4.88629): 94.8867 and 95.3188 and 94.2715
HDAC1 relative activity (HDAC1; log conc -5.41477): 102.996 and 104.783 and 104.694
HDAC1 relative activity (HDAC1; log conc -5.94309): 100.727 and 101.673 and 102.371
HDAC1 relative activity (HDAC1; log conc -6.47756): 104.216 and 103.707 and 104.551
HDAC1 relative activity (HDAC1; log conc -6.87615): 97.8849 and 97.6343 and 99.4595
SMILES: NC(=O)CCCCC1CCSS1 (racemic) [(R/S)-LM, (R/S)-lipoamide]
HDAC inhibition by the oxidized form (HDAC1,2,3,6,8; absence of TCEP): No activity at all
